According to patent publication US9416144B2, “Benzoxazine oxazolidinone compound, preparation method and application thereof” (priority 2012, dated 2016):
≈ marks a conversion by molar mass, not a printed value.

How the values were obtained:
[1] = tested on: Streptococcus pneumoniae resistant strains (4 strains); assay: In vitro antibacterial activity, MIC by agar double dilution method; type: cell-based; conditions: clinical isolates
Excerpt: (§1) Experimental method: The agar double dilution method (Antimicrob. Agents and Chemother, 40, 1996, 720-726) was used to determine the minimum inhibitory concentration (MIC) of the series of compounds of the invention and the positive control drug linezolid for the test strains. The multipoint inoculation system (Denley A400) was employed to inoculate the bacteria on the agar plate surface with different concentrations of drugs; inoculation amount on each point was about 10^6 CFU/mL. The plates were incubated at 35° C. for 16 hrs before the results were observed. The lowest drug concentration contained in the Petri dish without bacterial growth was used as the minimum inhibitory concentration (MIC value) of the drug fir that strain.
(§2) Test strains: All the test strains were clinically isolated pathogens which were collected from the Nanjing region, and they were re-identified by routine methods before use. 31 strains of the clinically isolated pathogens were chosen, including 6 strains of Enterococcus, 5 Staphylococcus aureus sensitive strains; 5 Staphylococcus epidermidis sensitive strains; 6 Staphylococcus aureus resistant strains; 5 Staphylococcus epidermidis resistant strains; and 4 Streptococcus pneumoniae resistant strains.
(§3) Compounds to be tested were first added 2 ml of DMSO to help them fully dissolved, then added sterile double distilled water to the desired concentration; to all the Petri dish with added drug liquid were added 20 mL MIT medium which was heat-melted to be liquid-like, to make the final drug concentration in the Petri dish to be 64, 32, 16, 8, 4, 2, 1, 0.5, 0.25, 0.125, 0.0625, and 0.031 μg/mL.
(§4) The positive control group was LZ (linezolid, brand name Zyvox, approved by the FDA in 2000 to be firstly sold in the United States, which is the first and also the only one of oxazolidinone antibacterial drugs allowed to enter clinical application).

[2] = tested on: Staphylococcus epidermidis resistant strains (5 strains); assay: as above; type: cell-based; conditions: clinical isolates
Excerpt: as §1, §2, §3, §4

[3] = tested on: Staphylococcus epidermidis sensitive strains (5 strains); assay: as above; type: cell-based; conditions: clinical isolates
Excerpt: as §1, §2, §3, §4

[4] = tested on: Staphylococcus aureus sensitive strains (5 strains); assay: as above; type: cell-based; conditions: clinical isolates
Excerpt: as §1, §2, §3, §4

[5] = tested on: Staphylococcus aureus resistant strains (6 strains); assay: as above; type: cell-based; conditions: clinical isolates
Excerpt: as §1, §2, §3, §4

Enterococcus (6 strains) = assay: as above; type: cell-based; conditions: clinical isolates, 35° C. 16 hrs
Excerpt: as §1, §2, §3, §4

melting point [°C]	MIC [1] [µg/mL]	MIC [2] [µg/mL]	MIC [3] [µg/mL]	MIC [4] [µg/mL]	MIC [5] [µg/mL]	MIC (Enterococcus (6 strains)) [µg/mL]	Compound
238 to 240	1 to 2 (≈ 2.96 to 5.93 µM)	0.25 to 1 (≈ 0.741 to 2.96 µM)	0.25 to 0.5 (≈ 0.741 to 1.48 µM)	0.25 to 0.5 (≈ 0.741 to 1.48 µM)	0.5 to 1 (≈ 1.48 to 2.96 µM)	4 to 8 (≈ 11.9 to 23.7 µM)	Cc1cc(C#N)ncc1-c1ccc2c(c1)OC[C@H]1[C@H](CO)OC(=O)N21 [Compound 21, 5-((3R,3aS)-3-(hydroxylmethyl)-1-oxo-1,3,3a,4-tetrahydrobenzo[b]oxazolo[3,4-d][1,4]oxazin-7-yl)-4-methylpicolinonitrile]
245 to 246	2 (≈ 5.03 µM)	1 (≈ 2.52 µM)	0.5 to 1 (≈ 1.26 to 2.52 µM)	0.5 to 1 (≈ 1.26 to 2.52 µM)	0.5 to 1 (≈ 1.26 to 2.52 µM)	4 to 16 (≈ 10.1 to 40.3 µM)	Cc1cc(N2CCOC2=O)ncc1-c1ccc2c(c1)OC[C@H]1[C@H](CO)OC(=O)N21 [Compound 22, (3R,3aS)-3-(hydroxylmethyl)-7-(4-methyl-6-(2-oxooxazolidin-3-yl)pyridin-3-yl)-3a,4-dihydrobenzo[b]oxazolo[3,4-d][1,4]oxazin-1(3H)-one]
169 to 171	16 (≈ 36.7 µM)	8 to 16 (≈ 18.3 to 36.7 µM)	4 to 8 (≈ 9.16 to 18.3 µM)	8 (≈ 18.3 µM)	8 (≈ 18.3 µM)	16 (≈ 36.7 µM)	CN1CCC[C@H]2CN(c3ccc(-c4ccc5c(c4)OC[C@H]4[C@H](CO)OC(=O)N54)cn3)C[C@H]21 [Compound 23, (3R,3aS)-3-(hydroxylmethyl)-7-(6-((4aS,7aS)-1-methylhexaydro-1H-pyrrolo[3,4-b]pyridin-6(2H)-yl)pyridin-3-yl)-3a,4-dihydrobenzo[b]oxazolo[3,4-d][1,4]oxazin-1(3H)-one]
210 to 212	8 to 16 (≈ 18.9 to 37.9 µM)	4 to 8 (≈ 9.47 to 18.9 µM)	4 to 8 (≈ 9.47 to 18.9 µM)	4 to 8 (≈ 9.47 to 18.9 µM)	8 (≈ 18.9 µM)	16 (≈ 37.9 µM)	O=C1O[C@@H](CO)[C@@H]2COc3cc(-c4ccc(N5C[C@@H]6CCCN[C@@H]6C5)nc4)ccc3N12 [Compound 32, (3R,3aS)-7-(6-((4aS,7aS)-hexahydro-1H-pyrrolo[3,4-b]pyridin-6(2H)-yl)pyridin-3-yl)-3-(hydroxylmethyl)-3a,4-dihydrobenzo[b]oxazolo[3,4-d][1,4]oxazin-1(3H)-one]
	2 (≈ 4.85 µM)	2 (≈ 4.85 µM)	0.5 to 1 (≈ 1.21 to 2.42 µM)	1 to 2 (≈ 2.42 to 4.85 µM)	1 to 2 (≈ 2.42 to 4.85 µM)	1 to 2 (≈ 2.42 to 4.85 µM)	NCC1CN(c2ccc(-c3ccc4c(c3)OC[C@H]3[C@H](CO)OC(=O)N43)cn2)C(=O)O1 (stereo partly drawn) [Compound 33, (3R,3aS)-7-(6-(5-(aminomethyl)-2-oxooxazolidin-3-yl)pyridin-3-yl)-3-(hydroxylmethyl)-3a,4-dihydrobenzo[b]oxazolo[3,4-d][1,4]oxazin-1(3H)-one]
